In article PMC12363935, “Unc-51 Like Kinase 3 (ULK3) is essential for autophagy and cell survival in multiple myeloma” (Research Square, 2025):

Legend:
[1] = tested on: CD138+ cells isolated from RRMM patient Pt1050; experiment: Immunoblot densitometry, patient cells; assay type: cell-based, human; conditions: Pt1050, 1μM; for ULK3 densitometry: CTRL 0.03; for ULK1 densitometry: CTRL 0.28
Experimental: (§1) Figure 7. MA9–060 treatment compromises the survival of patient NDMM and RRMM cells ex vivo. A. Representative viability (live cell imaging) response of CD138^+ cells from NDMM patient (Pt620) cultured and tested in autologous stromal microenvironment in EMMA’s ex vivo platform, exposed to three different concentrations of MA9–060 (0.7, 2.2, 6.7 μM). […] (not shown here – 20 μM). B. Ex vivo EMMA platform assay to quantify the chemosensitivity of primary CD138^+ MM cells plated in a collagen matrix with bone marrow stroma and patient plasma. […] C. […] H. Immunoblot showing levels of indicated proteins in CD138^+ cells isolated from RRMM patients (Pt971, Pt1050). Pt1050 CD138^+ cells were assessed for ULK3-mediated autophagy related proteins (ATGs), following treatment with MA9–060 (1μM at 2 and 6 hours).
157 5872S). Protein concentration was quantified by Thermo Scientific™ Pierce™ BCA™ Protein
30 μg protein was loaded to 10%-15% gel and ran at
159 100V for 2 hours. Later protein was transferred to PVDF membrane and blocked with 5% skimmed
160 milk in TBST (10 mM Tris/HCl pH8.0, 0.12M NaCl, 0.1% Tween 20) containing 5% BSA [8] for
163 at 4°C overnight. Membranes were washed 3 times,10 minutes with TBS. Then incubated with
164 appropriate secondary antibodies at 1:1000 ratio in skimmed milk or 2% BSA. The membranes
165 were washed again 3 times for 10 minutes with TBST. ECL reagents were added to the membrane
166 and blot was developed by LICOR Imaging Studio.
167 All immunoblotting assays were performed at least in three replicates and representative
168 images are shown. Commercially available antibodies and their dilutions are listed in
169 Supplementary Table 5. Immunoblotting images were acquired and quantified using LICOR
170 Image Studio Quant software. […]

[2] = tested on: co-cultured stromal cells; experiment: EMMA ex vivo platform, co-cultured stroma; assay type: cell-based; conditions: highest concentration 20 μM
Experimental: as §1
402 aspirate cells were enriched for CD138+ expression using Miltenyi (Bergisch Gladbach, Germany)
403 130-051-301 antibody-conjugated magnetic beads. MM cells (CD138+) were seeded in Corning
404 Cell BIND 384 well plates (Corning, NY) with collagen I and previously established human-
405 derived stroma, containing approximately 4000 MM cells and 1000 stromal cells. Each well was
406 filled with 80μL of RPMI 1640 media supplemented with fetal bovine serum (FBS, heat […]
422 images acquired for each well, we quantified non-destructively, and without the need to separate […]

U266-Luc MM cells = experiment: U266-Luc in vivo model, tail vein injection; conditions: 10 mg/kg/day subcutaneously, M-F
Experimental: For the U266-Luc model, 1 × 10^6 cells (100 μl/PBS) were tail vein injected into 4- to 6-week-old female and male NSG mice. […] Endpoint was represented by hind limb paralysis or >20% weight loss. When sacrificed, tumors tibiae were harvested and fixed in 10% neutral buffered formalin for 24 hours. Bioluminescent signal is reported as the average of the sum of dorsal and ventral signal of the mice/group/timepoint. […]
28 Animal Experimentation: All animal experiments were performed with approval from the
29 Moffitt/University of South Florida Institutional Animal Care and Use Committee (Protocol
31 validation of MA9 efficacy (Figure 4), we initially included n = 10 mice per treatment group:
Randomization based on sex, weight,
33 and initial tumor burden was conducted, followed by treatment with either vehicle control (n = 6),
35 Tumor progression was tracked via bioluminescence: endpoint was paralysis or >20% weight loss.
36 Experiments were blinded. […]
38 For MA9 therapy efficacy, mice were treated with vehicle (n=10) or MA9 (10 mg/kg/day,
39 subcutaneously, M-F from day 20; n=10) (Supplementary Fig. 7E, F). Survival and toxicity
40 (weight, clinical signs) was monitored.
43 Luciferase-labeled MM cells 5TGM1-Luc (RRID: CVCL_VI66) and U266-Luc (RRID: […]
51 cells (all from the ATCC, USA) were routinely cultured at 37 °C in Roswell Park Memorial
53 FBS1) and penicillin/streptomycin (hereafter, complete medium).
54 Cells were not used for five days following PI-treatment. All myeloma cell lines were […]

[3] = tested on: human mesenchymal stem cells (hMSCs); experiment: MTS assay on hMSCs; assay type: cell-based; conditions: nM concentration
Experimental: complex. Supplementary Figure 5. […]
here as reference for BRD4 inhibitory activity. […] NA=
1 hour incubation with liver microsomes. C.
ULK3 rendered in Pymol (Schrodinger Inc.) at a 2.8 Å resolution. D. Table summarizing hULK3-MA9060 crystallographic data collection and refinement statistics. E. MA9060 is a dual inhibitor, able to decrease both ULK3 and MYC protein levels in MYC-dependent MM1.S MM cells. JQ1 is here included as the control for […]
mesenchymal stem cells (hMSCs) at 24 (G) and 48 (H) hours.

Question: `Cc1cnc(Nc2ccc(C3CCN(C)CC3)c(F)c2)nc1Nc1ccc(Cl)c(NS(=O)(=O)C(C)(C)C)c1` [MA9060] was tested. Which ULK3 densitometry ([1]; 2h) did it give?
Answer: 0.03

Question: And the ULK1 densitometry ([1]; 2h)?
Answer: 0.67

Question: And the ULK3 densitometry ([1]; 6h)?
Answer: 0.03

Question: And the ULK1 densitometry ([1]; 6h)?
Answer: 0.35

Question: And the “toxicity for co-cultured stromal cells” value [2]?
Answer: no toxicity

Question: And the “MM-induced osteolysis (X-ray, histology)” value (U266-Luc MM cells)?
Answer: significantly protected against MM-induced osteolysis

Question: And the “toxicity (weight loss, lethargy, ruffled hair)” value (U266-Luc MM cells)?
Answer: did not show any sign of toxicity

Question: And the “tumor growth (bioluminescence) vs control” value (U266-Luc MM cells)?
Answer: significantly impaired tumor growth

Question: What about the “toxicity (weight loss, lethargy, ruffled hair)” value (U266-Luc MM cells; listed as MA9) of the same molecule?
Answer: no overt toxicities

Question: And the “toxicity to normal primary human MSCs” value [3]?
Answer: not toxic
